Source: patent US20220089592A1, “IMIDAZO[1,2-A]PYRIDINYL DERIVATIVES AS IRAK4 INHIBITORS” (priority 2019, published 2022)

Experiments:
IRAK4 [1] = target: T1, IRAK4 (Homo sapiens, UniProt Q9NWZ3); test: 2-hour 1 mM ATP IRAK4 Biochemical assay (as above, but with 100 pM IRAK4 and 1 mM ATP); details: IRAK4 MSD BIOCHEMICAL (1 mM ATP) IC50 (μM), 100 pM IRAK4, 2 hours
T1 sequence (Q9NWZ3 1-460): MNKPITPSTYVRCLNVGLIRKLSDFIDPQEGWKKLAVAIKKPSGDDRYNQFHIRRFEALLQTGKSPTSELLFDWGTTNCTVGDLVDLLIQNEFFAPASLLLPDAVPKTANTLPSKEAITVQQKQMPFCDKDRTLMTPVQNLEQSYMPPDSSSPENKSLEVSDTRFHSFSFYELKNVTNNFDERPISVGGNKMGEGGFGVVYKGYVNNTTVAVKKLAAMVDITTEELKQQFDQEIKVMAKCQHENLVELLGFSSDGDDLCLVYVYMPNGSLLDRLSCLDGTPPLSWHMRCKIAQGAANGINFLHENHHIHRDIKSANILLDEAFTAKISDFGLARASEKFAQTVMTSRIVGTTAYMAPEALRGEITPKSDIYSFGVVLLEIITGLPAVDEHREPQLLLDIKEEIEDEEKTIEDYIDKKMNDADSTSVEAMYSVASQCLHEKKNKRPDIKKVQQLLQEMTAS
Method in brief: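 Run with 100 pM IRAK4 and 1 mM ATP for 2 hours, quenched with EDTA pH 8. Phosphorylated biotinylated peptide captured on streptavidin MSD plates and detected with anti-phosphothreonine antibody plus Sulfo-Tag secondary by electrochemiluminescence.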

IRAK4 [2] = target: T1, IRAK4; test: 2-hour 10 μM ATP Biochemical Assay (MesoScale Detection format; IRAK4 phosphorylation of biotin labeled IRAK1 activation loop peptide); details: IRAK4 MSD BIOCHEMICAL (10 μM ATP) IC50 (μM), 1 nM IRAK4, 2 hours
Method in brief: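 Kinase reaction run 2 h at 10 μM ATP with biotinylated IRAK1 activation-loop peptide, quenched with EDTA. Phospho-peptide captured on streptavidin MSD plates and detected with anti-phosphothreonine rabbit antibody plus Sulfo-Tag anti-rabbit electrochemiluminescence.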

IC50 (IRAK4 [1])	IC50 (IRAK4 [2])	Structure (SMILES)
0.001 µM	0.001 µM	CCOc1cc2nc(C34CC(COC)(C3)C4)cn2cc1NC(=O)c1cccc(C(F)(F)F)n1 [Example 523, N-(7-ethoxy-2-(3-(methoxymethyl)bicyclo[1.1.1]pentan-1-yl)imidazo[1,2-a]pyridin-6-yl)-6-(trifluoromethyl)picolinamide]
0.015 µM	0.004 µM	CCOc1cc2nc(CCCOC)cn2cc1NC(=O)c1cccc(OC)n1 [Example 524, N-(7-ethoxy-2-(3-methoxypropyl)imidazo[1,2-a]pyridin-6-yl)-6-methoxypicolinamide]
0.001 µM	0.003 µM	CC(C)Oc1c(NC(=O)c2cnn3cccnc23)cn2cc(C34COC(C)(C3)C4)nc2c1F [Example 577, N-(8-fluoro-7-isopropoxy-2-(1-methyl-2-oxabicyclo[2.1.1]hexan-4-yl)imidazo[1,2-a]pyridin-6-yl)pyrazolo[1,5-a]pyrimidine-3-carboxamide]
